System: STa toxin-induced fluid secretion
Design: species or system rats
Conditions: rat, in vivo

In the case of `O=C(O)c1ccc(/C=C2\SC(=S)N(c3cccc(C(F)(F)F)c3)C2=O)cc1` [CFTRinh-172, 3-[(3-trifluoromethyl)phenyl]-5-[(4-carboxyphenyl)methylene]-2-thioxo-4-thiazolidinone], the “inhibition of intestinal fluid secretion” value is reported as ~75%.
